Results: ChEMBL document CHEMBL1123898, “Antitumor imidazotetrazines. 14. Synthesis and antitumor activity of 6- and 8-substituted imidazo[5,1-d]-1,2,3,5-tetrazinones and 8-substituted pyrazolo[5,1-d]-1,2,3,5-tetrazinones” (1987)

Columns and labels:
[1] = tested on: L1210; assay: Antitumor activity was assessed against L1210 tumors in B6D2F1 mouse by inoculation of 10e5 tumor cells through intravenous route and mean death of animals (treated/control) was reported at 200 mg/kg peroral dose; format: functional; details: route oral
[2] = tested on: L1210; assay: Antitumor activity was assessed against L1210 tumors in B6D2F1 mouse by inoculation of 10e5 tumor cells through intravenous route and mean death of animals (treated/control) was reported at 100 mg/kg peroral dose; format: functional; details: route oral
[3] = tested on: L1210; assay: Antitumor activity was assessed against L1210 tumors in B6D2F1 mouse by inoculation of 10e5 tumor cells through intravenous route and mean death of animals (treated/control) was reported at 50 mg/kg peroral dose; format: functional; details: route oral
[4] = tested on: L1210; assay: Antitumor activity was assessed against L1210 tumors in B6D2F1 mouse by inoculation of 10e5 tumor cells through iv route and mean death of animals (treated/control) was reported at 20 mg/kg po dose; format: functional
[5] = tested on: L1210; assay: Antitumor activity was assessed against L1210 tumors in B6D2F1 mouse by inoculation of 10e5 tumor cells through iv route and number of Survivors to duration was reported at 40 mg/kg po dose; 7/7; format: functional
[6] = Antitumor activity was assessed against TLX5 tumors in CBA/CA mouse by inoculation of 2 x 10e5 tumor cells through sc route and mean death of animals (treated/control) was reported at 20 mg/kg dose; format: functional; details: route subcutaneous
[7] = Antitumor activity was assessed against TLX5 tumors in CBA/CA mouse by inoculation of 2 x 10e5 tumor cells through sc route and mean death of animals (treated/control) was reported at 80 mg/kg dose; format: functional; details: route subcutaneous
[8] = tested on: L1210; assay: Antitumor activity was assessed against L1210 tumors in B6D2F1 mouse by inoculation of 10e5 tumor cells through iv route and mean death of animals (treated/control) was reported at 10 mg/kg po dose; format: functional
[9] = Antitumor activity was assessed against TLX5 tumors in CBA/CA mouse by inoculation of 2 x 10e5 tumor cells through sc route and mean death of animals (treated/control) was reported at 40 mg/kg dose; format: functional; details: route subcutaneous
[10] = tested on: L1210; assay: Antitumor activity was assessed against L1210 tumors in B6D2F1 mouse by inoculation of 10e5 tumor cells through iv route and mean death of animals (treated/control) was reported at 40 mg/kg po dose; format: functional
[11] = Antitumor activity was assessed against TLX5 tumors in CBA/CA mouse by inoculation of 2 x 10e5 tumor cells through sc route and number of survivors was reported at 40 mg/kg ip dose; 3/5; format: functional; details: route subcutaneous
[12] = Antitumor activity was assessed against TLX5 tumors in CBA/CA mouse by inoculation of 2 x 10e5 tumor cells through sc route and number of survivors was reported at 20 mg/kg ip dose; 3/5; format: functional; details: route subcutaneous
[13] = Antitumor activity was assessed against TLX5 tumors in CBA/CA mouse by inoculation of 2 x 10e5 tumor cells through sc route and mean death of animals (treated/control) was reported at 320 mg/kg dose; format: functional; details: route subcutaneous
[14] = Antitumor activity was assessed against TLX5 tumors in CBA/CA mouse by inoculation of 2 x 10e5 tumor cells through sc route and mean death of animals (treated/control) was reported at 160 mg/kg dose; format: functional; details: route subcutaneous
[15] = tested on: L1210; assay: Antitumor activity was assessed against L1210 tumors in B6D2F1 mouse by inoculation of 10e5 tumor cells through iv route and mean death of animals (treated/control) was reported at 100 mg/kg po dose; format: functional
[16] = tested on: L1210; assay: Antitumor activity was assessed against L1210 tumors in B6D2F1 mouse by inoculation of 10e5 tumor cells through iv route and mean death of animals (treated/control) was reported at 200 mg/kg po dose; format: functional
[17] = tested on: L1210; assay: Antitumor activity was assessed against L1210 tumors in B6D2F1 mouse by inoculation of 10e5 tumor cells through iv route and mean death of animals (treated/control) was reported at 50 mg/kg po dose; format: functional
[18] = tested on: L1210; assay: Antitumor activity was assessed against L1210 tumors in B6D2F1 mouse by inoculation of 10e5 tumor cells through iv route and mean death of animals (treated/control) was reported at 80 mg/kg po dose; format: functional
[19] = tested on: L1210; assay: Antitumor activity was assessed against L1210 tumors in B6D2F1 mouse by inoculation of 10e5 tumor cells through iv route and mean death of animals (treated/control) was reported at 160 mg/kg po dose; format: functional
[20] = Antitumor activity was assessed against TLX5 tumors in CBA/CA mouse by inoculation of 2 x 10e5 tumor cells through sc route and number of survivors to duration was reported at 40 mg/kg ip dose; 2/5; format: functional; details: route subcutaneous
[21] = Antitumor activity was assessed against TLX5 tumors in CBA/CA mouse by inoculation of 2 x 10e5 tumor cells through sc route and number of survivors to duration was reported at 80 mg/kg ip dose; 5/5; format: functional; details: route subcutaneous
[22] = Antitumor activity was assessed against TLX5 tumors in CBA/CA mouse by inoculation of 2 x 10e5 tumor cells through subcutaneous route and mean death of animals (treated/control) was reported at 160 mg/kg dose; format: functional
[23] = Antitumor activity was assessed against TLX5 tumors in CBA/CA mouse by inoculation of 2 x 10e5 tumor cells through subcutaneous route and mean death of animals (treated/control) was reported at 10 mg/kg ip dose; format: functional
[24] = Antitumor activity was assessed against TLX5 tumors in CBA/CA mouse by inoculation of 2 x 10e5 tumor cells through subcutaneous route and mean death of animals (treated/control) was reported at 20 mg/kg ip dose; format: functional
[25] = Antitumor activity was assessed against TLX5 tumors in CBA/CA mouse by inoculation of 2 x 10e5 tumor cells through subcutaneous route and mean death of animals (treated/control) was reported at 80 mg/kg dose; format: functional
[26] = Antitumor activity was assessed against TLX5 tumors in CBA/CA mouse by inoculation of 2 x 10e5 tumor cells through subcutaneous route and mean death of animals (treated/control) was reported at 40 mg/kg dose; format: functional
[27] = tested on: L1210; assay: Antitumor activity was assessed against L1210 tumors in B6D2F1 mouse by inoculation of 10e5 tumor cells through intravenous route and number of Survivors to duration was reported at 10 mg/kg peroral dose; 2/10; format: functional; details: route oral
[28] = Antitumor activity was assessed against TLX5 tumors in CBA/CA mouse by inoculation of 2 x 10e5 tumor cells through subcutaneous route and mean death of animals (treated/control) was reported at 80 mg/kg iv dose; format: functional
[29] = Antitumor activity was assessed against TLX5 tumors in CBA/CA mouse by inoculation of 2 x 10e5 tumor cells through subcutaneous route and mean death of animals (treated/control) was reported at 5 mg/kg dose; format: functional
[30] = tested on: L1210; assay: Antitumor activity was assessed against L1210 tumors in B6D2F1 mouse by inoculation of 10e5 tumor cells through ip route and mean death of animals (treated/control) was reported at 10 mg/kg peroral dose; format: functional; details: route oral
[31] = Antitumor activity was assessed against TLX5 tumors in CBA/CA mouse by inoculation of 2 x 10e5 tumor cells through subcutaneous route and number of Survivors to duration was reported at 40 mg/kg iv dose; 5/5; format: functional
[32] = Antitumor activity was assessed against TLX5 tumors in CBA/CA mouse by inoculation of 2 x 10e5 tumor cells through subcutaneous route and number of Survivors to duration was reported at 20 mg/kg iv dose; 1/5; format: functional
[33] = tested on: L1210; assay: Antitumor activity was assessed against L1210 tumors in B6D2F1 mouse by inoculation of 10e5 tumor cells through intraperitoneal route and number of Survivors to duration was reported at 20 mg/kg peroral dose; 10/10; details: route oral
[34] = tested on: L1210; assay: Antitumor activity was assessed against L1210 tumors in B6D2F1 mouse by inoculation of 10e5 tumor cells through intraperitoneal route and number of Survivors to duration was reported at 40 mg/kg peroral dose; 2/10; details: route oral
[35] = Antitumor activity was assessed against TLX5 tumors in CBA/CA mouse by inoculation of 2 x 10e5 tumor cells through subcutaneous route and mean death of animals (treated/control) was reported at 20 mg/kg dose; format: functional
[36] = tested on: L1210; assay: Antitumor activity was assessed against L1210 tumors in B6D2F1 mouse by inoculation of 10e5 tumor cells through ip route and mean death of animals (treated/control) was reported at 40 mg/kg peroral dose; format: functional; details: route oral
[37] = tested on: L1210; assay: Antitumor activity was assessed against L1210 tumors in B6D2F1 mouse by inoculation of 10e5 tumor cells through ip route and mean death of animals (treated/control) was reported at 20 mg/kg peroral dose; format: functional; details: route oral
[38] = Antitumor activity was assessed against TLX5 tumors in CBA/CA mouse by inoculation of 2 x 10e5 tumor cells through subcutaneous route and mean death of animals (treated/control) was reported at 40 mg/kg iv dose; format: functional
[39] = Antitumor activity was assessed against TLX5 tumors in CBA/CA mouse by inoculation of 2 x 10e5 tumor cells through subcutaneous route and mean death of animals (treated/control) was reported at 10 mg/kg iv dose; format: functional

O=c1n(CCCl)nnc2c([N+](=O)[O-])cnn12
T/C [1]: 101% | T/C [2]: 100% | T/C [3]: 101%

CN(C)S(=O)(=O)c1ncn2c(=O)n(CCCl)nnc12
T/C [4]: 222% | Survivors [5]: 7 | T/C [6]: >385% | T/C [7]: 68% | T/C [8]: 152% | T/C [9]: >381% | T/C [10]: >750% | Survivors [11]: 3 | Survivors [12]: 3

COc1ccc(CNS(=O)(=O)c2ncn3c(=O)n(CCCl)nnc23)cc1
T/C [6]: 113% | T/C [13]: 109% | T/C [7]: 151% | T/C [14]: 123%

O=c1n(CCCl)nnc2c(-c3ccccc3)ncn12
T/C [1]: 100% | T/C [2]: 100% | T/C [3]: 100%

O=c1n(CCCl)nnc2c([N+](=O)[O-])ncn12
T/C [1]: 98% | T/C [2]: 98% | T/C [3]: 98%

CC(C)c1nc(C(N)=O)c2nnn(CCCl)c(=O)n12
T/C [15]: 104% | T/C [16]: 137% | T/C [17]: 100%

CCCCc1nc(C(N)=O)c2nnn(CCCl)c(=O)n12
T/C [18]: 113% | T/C [19]: 147% | T/C [10]: 100%

NC(=O)c1nc(Cc2ccccc2)n2c(=O)n(CCCl)nnc12
T/C [1]: 127% | T/C [2]: 114% | T/C [3]: 105%

CN(C(=O)c1ncn2c(=O)n(CCCl)nnc12)c1ccccc1
T/C [1]: 100% | T/C [2]: 100% | T/C [3]: 100%

Cc1nc(C(N)=O)c2nnn(CCCl)c(=O)n12
T/C [6]: 176% | T/C [13]: 66% | T/C [7]: >550% | Survivors [20]: 2 | T/C [18]: 248% | T/C [8]: 128% | T/C [9]: >343% | T/C [19]: 267% | T/C [10]: 180% | T/C [14]: 80% | Survivors [21]: 5

N#Cc1ncn2c(=O)n(CCCl)nnc12
T/C [22]: 80% | T/C [23]: 96% | T/C [24]: 102% | T/C [25]: 104% | T/C [26]: 102%

CNC(=O)c1ncn2c(=O)n(CCCl)nnc12
Survivors [27]: 2 | T/C [28]: 72% | T/C [29]: 104% | T/C [30]: >192% | Survivors [31]: 5 | Survivors [32]: 1 | Survivors [33]: 10 | Survivors [34]: 2 | T/C [35]: >254% | T/C [36]: >215% | T/C [37]: >453% | T/C [38]: >555% | T/C [39]: 133%

CCc1nc(C(N)=O)c2nnn(CCCl)c(=O)n12
T/C [4]: 145% | T/C [8]: 105% | T/C [10]: 212%

NC(=O)c1nc(C2CCCCC2)n2c(=O)n(CCCl)nnc12
T/C [1]: 90% | T/C [2]: 86% | T/C [3]: 94%
